Test results reported in patent publication US20090107495A1, “DEVICE FOR INHALATION OF MEDICINE” (NATIONAL INSTITUTE FOR MATERIALS SCIENCE, priority 2005, published 2009).

Columns and labels:
Format in all cases: physicochemical
Solubility in ethanol = experiment: Solubility in ethanol
[1] = Particle size of creatine adhered on PVP nano fiber, by scanning electron microscope; details: SEM, FIG. 1
Description: A commercially available electrospinning apparatus (HSP-30K-2 manufactured by Nippon Stabilizer Industry Co., Ltd.) was used, voltage (direct current of 15 kV) was applied between (the distance being 20 cm) a nozzle and an aluminum foil (manufactured by Mitsubishi Aluminum Company, Ltd.) on which a cotton mat (manufactured by Asahi Kasei Corporation) is placed attached to a collector of the apparatus and a 10 wt % ethanolic solution of polyvinylpyrrolidone (PVP) was sprayed at ambient temperature from the nozzle onto the cotton mat to form a matrix comprising a nano fiber of PVP on the surface of the cotton mat. A fiber diameter of the nano fiber of PVP constituting the matrix was measured by using a scanning electron microscope (SEM JSM-5400 manufactured by JOEL Ltd.) and found to be from 300 to 700 nm. The cotton mat where a matrix comprising a nano fiber of PVP was formed on the surface was attached onto a filter of a commercially available spray-drying apparatus (Buchi Mini Spray Drier B-290 manufactured by Nihon BUCHI K.K.) and a 1 wt % aqueous solution of creatine was spray-dried onto the matrix (outlet temperature of the nozzle: 180° C.; aspirator speed: 35%; pump speed: 5%) to give a cotton mat where a matrix comprising a nano fiber of PVP in which creatine particles were adhered on the surface was formed on the surface. As will be apparent from FIG. 1, the particle size of creatine adhered on the surface of the nano fiber of PVP was about 2 μm at the largest and many of the particles were in a size of from 100 nm to smaller than 1 μm.

[2] = Exposure of the cotton mat to air stream similar to human inspiration, SEM picture after exposure
Protocol: The cotton mat where the matrix comprising the nano fiber of PVP in which creatine particles were adhered on the surface was formed on the surface was exposed for 1 minute in air stream having the similar degree as human inspiration (velocity is 5 L/minute). A picture of the cotton mat after exposure taken under a scanning electron microscope (the same one as mentioned already) is shown in FIG. 2.

[3] = spray-dried onto PVP nano fiber matrix on cotton mat

Structure (SMILES)	solubility in ethanol (Solubility in ethanol)	particle size of creatine adhered on the surface of the nano fiber of PVP, at the largest ([1]; spray-dried from 1 wt % aqueous solution onto PVP nano fiber matrix on cotton mat)	particle size, many of the particles, lower limit [1, 3] [nm]	particle size, many of the particles, upper limit [1, 3]	stability of nano- to micron-size particles in air ([2]; adhered on PVP nano fiber matrix, no dispersing solvent)	detachment of particles adhered on the nano fiber of PVP ([2]; air stream 5 L/minute, 1 minute, SEM, FIG. 2)
O=c1c2ccccc2[se]n1-c1ccccc1 [Ebselen, 2-phenyl-1,2-benzoisoselenazol-3-(2H)-one]	hardly soluble	–	–	–	–	–
CN(CC(=O)O)C(=N)N [creatine]	–	about 2 μm	≥ 100	smaller than 1 μm	stably retained even in air	detached by air stream
